Reference: patent US20250041323A1, “BDNF PRODUCTION PROMOTER” (YAMASA CORPORATION, priority 2022, published 2025)

Assays:
[1] = tested on: BDNF mRNA in C2C12 cell-derived myotube cells; assay: BDNF gene expression promoting effect-1: BDNF mRNA by real-time PCR in C2C12 cell-derived myotube cells; assay type: cell-based, mouse; conditions: 1 mM, 4 hours, corrected to β-actin mRNA, vs control without test substance, Dunnett's test, n=3
Procedure: Mouse myoblast cell line C2C12 cells (RIKEN BRC, RCB0987) were suspended in a growth medium (DMEM containing 10% FBS and antibiotics), seeded in a 24-well plate, and cultured in an incubator at 37° C. and 5% CO2 until the cell density reached 70-90%. The growth medium was removed and replaced with a differentiation induction medium (DMEM containing 2% horse serum and antibiotics). After culturing it for 6 days while changing the medium once every 2 days, cytidylic acid (CMP) or uridylic acid (UMP) was added to a final concentration of 1 mM and cultured for 4 hours. The medium was removed, and the total RNA was extracted from the cells using NucleoSpin® RNA (TAKARA BIO INC).
Using the total RNA as a template, a reverse transcription reaction solution was prepared using ReverTra Ace® qPCR RT Kit (TOYOBO). The reverse transcription reaction solution, GoTaq qPCR Master Mix (Promega), and a real-time PCR device Thermal Cycler Dice® Real Time System (TAKARA BIO INC) were used to measure amounts of mRNAs of BDNF and β-actin as an internal standard. Analysis was performed by relative quantification, and the amount of the mRNA was corrected using the amount of mRNA of β-actin as an endogenous control.
The threshold of statistical significance was set at 5%. In addition, unless otherwise specified, including the following Examples, each sample was examined at n=3.

BDNF mRNA in PC-12 cells [2] = assay: BDNF gene expression promoting effect-3: BDNF mRNA by real-time PCR in PC-12 cells (uridine); assay type: cell-based, rat; conditions: 200 μM, 1 hour, n=3
Procedure: PC-12 cells were suspended in DMEM containing 5% FBS (fetal bovine serum), 10% horse serum, and antibiotics (100 units/ml of penicillin, 100 μg/ml of streptomycin), seeded on a collagen-coated 24-well plate at a density of 2.4×10^5 cells/well, and cultured in an incubator at 37° C. and 5% CO2 for 18 hours. Uridine, a precursor of uridylic acid, was added to a final concentration of 200 μM, and cultured for 1 hour. Subsequently, mRNA was extracted, and the amount of mRNA of BDNF was evaluated by reverse transcription and real-time PCR analysis in the same procedure as that of Example 1.

[3] = tested on: BDNF protein in PC-12 cells; assay: BDNF protein by Rat BDNF ELISA in PC-12 cell lysate; assay type: cell-based; conditions: 200 µM, 24 hours, t-test vs control, n=3
Procedure: PC-12 cells were suspended in DMEM containing 20% FBS and antibiotics, seeded on a collagen-coated 24-well plate at a density of 2.4×10^5 cells/well, and cultured in an incubator at 37° C. and 5% CO2 for 18 hours. Uridine was added to a final concentration of 200 µM, and cultured for 24 hours. The medium was removed by suction, and 100 μl of RIPA buffer (50 mM Tris-HCl (pH 7.6), 150 mM NaCl, 1% NP-40, 0.5% sodium deoxycholate, 1% SDS) containing 1% protease inhibitor cocktail (nacalai tesque) was added, and the cells were disrupted by pipetting and ultrasonication. The amount of BDNF in the cell lysate was measured using a Rat BDNF ELISA Kit (RayBiotech). The amount of protein in the cell lysate was measured using a Micro BCA™ Protein Assay Kit (Thermo Fisher Scientific), and the amount of BDNF per total protein mass was calculated. […] The threshold for statistical significance was set at 5%.

BDNF mRNA in PC-12 cells [4] = assay: BDNF gene expression promoting effect-2: BDNF mRNA by real-time PCR in PC-12 cells (uridylic acid); assay type: cell-based, rat; conditions: 500 µM, 4 hours, n=3
Procedure: Rat adrenal medulla brown tumor-derived cells (PC-12 cells, JCRB0733), used as nervous system model cells, were suspended in DMEM containing 20% FBS and antibiotics, seeded on a collagen-coated 24-well plate at a density of 2.4×10^5 cells/well, and cultured in an incubator at 37° C. and 5% CO2 for 18 hours. Uridylic acid (UMP) was added to a final concentration of 500 µM, and cultured for 4 hours.
Subsequently, mRNA was extracted and an amount of mRNA of BDNF was evaluated by reverse transcription and real-time PCR analysis in the same procedure as that of Example 1.

Row | SMILES | amount of mRNA of BDNF [1] | amount of mRNA of BDNF (BDNF mRNA in PC-12 cells [2]) | amount of BDNF per total protein mass [3] | amount of mRNA of BDNF (BDNF mRNA in PC-12 cells [4])
1 | Nc1ccn([C@@H]2O[C@H](COP(=O)(O)O)[C@@H](O)[C@H]2O)c(=O)n1 [cytidylic acid] | significantly increased | – | – | –
2 | O=c1ccn([C@@H]2O[C@H](CO)[C@@H](O)[C@H]2O)c(=O)[nH]1 [uridine] | – | significantly increased | significantly increased | –
3 | O=c1ccn([C@@H]2O[C@H](COP(=O)(O)O)[C@@H](O)[C@H]2O)c(=O)[nH]1 [uridylic acid] | significantly increased | – | – | significantly increased
